Consider 18 compounds from patent US8466162B2, “5-alkynyl-pyridines” (Boehringer Ingelheim International GmbH, priority 2011, dated 2013).

The subject of assay [1] is MB453 cells. In words: alamarBlue MB453 cell assay (antiproliferative/cytotoxicity). The following applies: Homo sapiens; MDA MB 453 breast cancer cell line. The format is cell-based. Put shortly:
(§1)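 Cells treated 5–6 days at 37 °C with compound, 10 μM top final concentration, 1:3 steps over 10 dilutions, in duplicate. alamarBlue then added for 8 h; fluorescence read at ex 530–560/em 590 nm, medium blank subtracted, EC50 fitted.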

The target of assay [2] is T1, PI3Kalpha (Homo sapiens, UniProt P42336).
T1 construct: His (N); made in house; host or cells: SF9 insect cells (baculovirus co-infection)
T1 sequence (P27986 whole entry): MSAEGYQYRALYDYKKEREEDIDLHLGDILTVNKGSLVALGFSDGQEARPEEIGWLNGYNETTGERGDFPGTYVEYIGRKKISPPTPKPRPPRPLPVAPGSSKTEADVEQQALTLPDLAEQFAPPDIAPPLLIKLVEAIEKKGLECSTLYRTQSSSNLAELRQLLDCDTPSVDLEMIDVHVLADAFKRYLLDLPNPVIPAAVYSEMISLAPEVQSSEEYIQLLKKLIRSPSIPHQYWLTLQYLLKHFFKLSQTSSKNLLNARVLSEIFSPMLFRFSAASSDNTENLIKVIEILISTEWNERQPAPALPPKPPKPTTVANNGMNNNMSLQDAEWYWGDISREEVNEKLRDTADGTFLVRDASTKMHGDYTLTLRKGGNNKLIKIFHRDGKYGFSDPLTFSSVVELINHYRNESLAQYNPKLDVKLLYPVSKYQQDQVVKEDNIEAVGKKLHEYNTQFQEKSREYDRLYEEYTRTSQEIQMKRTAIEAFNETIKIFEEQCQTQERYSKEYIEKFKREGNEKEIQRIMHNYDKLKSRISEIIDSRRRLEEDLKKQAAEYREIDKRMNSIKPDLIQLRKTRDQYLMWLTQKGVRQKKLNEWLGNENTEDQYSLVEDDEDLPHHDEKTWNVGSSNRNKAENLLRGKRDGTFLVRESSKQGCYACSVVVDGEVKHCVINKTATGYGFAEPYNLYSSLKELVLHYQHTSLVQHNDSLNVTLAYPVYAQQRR
T1 sequence (P42336 whole entry): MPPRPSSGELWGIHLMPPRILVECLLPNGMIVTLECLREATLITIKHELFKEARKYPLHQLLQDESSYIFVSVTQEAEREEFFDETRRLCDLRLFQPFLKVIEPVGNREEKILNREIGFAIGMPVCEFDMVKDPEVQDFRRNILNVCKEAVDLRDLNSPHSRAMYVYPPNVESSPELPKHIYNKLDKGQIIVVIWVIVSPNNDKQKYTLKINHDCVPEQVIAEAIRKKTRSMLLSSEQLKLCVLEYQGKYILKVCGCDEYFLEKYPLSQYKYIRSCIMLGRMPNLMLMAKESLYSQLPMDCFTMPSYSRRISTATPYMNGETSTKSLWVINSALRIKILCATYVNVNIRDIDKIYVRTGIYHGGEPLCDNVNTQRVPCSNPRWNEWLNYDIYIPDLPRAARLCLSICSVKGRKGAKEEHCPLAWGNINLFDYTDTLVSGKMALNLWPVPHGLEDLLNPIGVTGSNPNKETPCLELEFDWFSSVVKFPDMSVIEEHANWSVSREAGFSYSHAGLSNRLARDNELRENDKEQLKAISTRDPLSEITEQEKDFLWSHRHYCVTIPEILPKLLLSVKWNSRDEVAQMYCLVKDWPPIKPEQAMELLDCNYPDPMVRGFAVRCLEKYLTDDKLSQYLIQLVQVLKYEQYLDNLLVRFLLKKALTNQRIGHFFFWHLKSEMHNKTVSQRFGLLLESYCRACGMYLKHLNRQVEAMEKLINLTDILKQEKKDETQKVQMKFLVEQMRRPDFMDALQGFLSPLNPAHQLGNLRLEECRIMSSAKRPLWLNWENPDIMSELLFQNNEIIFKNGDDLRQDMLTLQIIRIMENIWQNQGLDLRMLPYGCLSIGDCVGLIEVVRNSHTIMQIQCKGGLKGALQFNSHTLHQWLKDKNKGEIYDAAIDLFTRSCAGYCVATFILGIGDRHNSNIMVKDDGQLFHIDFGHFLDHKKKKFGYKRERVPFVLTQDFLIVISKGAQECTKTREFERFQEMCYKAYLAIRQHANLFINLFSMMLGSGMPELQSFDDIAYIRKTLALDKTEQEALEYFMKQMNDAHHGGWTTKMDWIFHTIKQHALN
In words: Inhibition of PI3Kalpha-induced PIP-2 phosphorylation (filter-binding assay, 33P-ATP). The format is biochemical. To be noted: PI3 Kinase alpha (p85alpha/His-p110alpha), 1 μM ATP; read-out: IC50 PI3Kα.

Assay [3] deals with U87 cells. Put plainly: alamarBlue U87 cell assay (antiproliferative/cytotoxicity). The format is cell-based. To be noted: U-87MG human glioblastoma cells. The method, boiled down: as §1
Assay [4] concerns BT474 cells. Put plainly: alamarBlue BT474 cell assay (antiproliferative/cytotoxicity). The format is cell-based. The following applies: BT-474 human breast cancer cell line, 5-6 days incubation. Put shortly: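 3000 cells/well, overnight attachment, 37° C CO2; BT474 medium IMDM/5% FCS. Cpds 10 μM final, 1:3 x10, duplicates; 5-6 d exposure. alamarBlue 8 h, fluor. 530-560/590 nm; EC50 from blank-corrected data.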
For orientation: Alamar Blue is a resazurin reagent that responds to reducing activity.

In assay [5] the test system is MCF7 cells. Put plainly: alamarBlue MCF7 cell assay (antiproliferative/cytotoxicity). The format is cell-based. To be noted: MCF7 human breast cancer cell line. The method, boiled down:
as §1

Assay [6] deals with H460 cells. In words: alamarBlue H460 cell assay (antiproliferative/cytotoxicity). The following applies: NCI-H460; H460 human lung carcinoma cells. The format is cell-based. Put shortly:
as §1

One may read the EC50 as the concentration at which the effect is half-maximal. Broadly, the IC50 is the concentration that inhibits the measured activity by half. For the compound `CCc1nc(N)nc(-c2ccnc(C)c2)c1C#Cc1cnc(C)c(NS(=O)(=O)c2ccc(F)cc2F)c1` [Example 33, N-{5-[2-Amino-4-ethyl-6-(2-methyl-pyridin-4-yl)-pyrimidin-5-ylethynyl]-2-methyl-pyridin-3-yl}-2,4-difluoro-benzenesulfonamide], the EC50 in assay [1] worked out at 45 nM; in assay [3], 224 nM; in assay [4] it was 33 nM; in assay [5] it was 9 nM; in assay [6], 70 nM. Moreover, the IC50 in assay [2] was found to be 0.45 nM.
As to `CCc1ncnc(-c2ccc(C)nc2)c1C#Cc1cnc(C)c(NS(C)(=O)=O)c1` [Example 3, N-{5-[4-Ethyl-6-(6-methyl-pyridin-3-yl)-pyrimidin-5-ylethynyl]-2-methyl-pyridin-3-yl}-methanesulfonamide], the concentration for a half-maximal effect (EC50) in assay [1] worked out at 112 nM; in assay [3], 410 nM; in assay [4], 177 nM; in assay [5], 23 nM; in assay [6] it was 368 nM. Moreover, the IC50 in assay [2] was found to be 1 nM.
Regarding `CCc1ncnc(-c2ccnc(C)c2)c1C#Cc1cnc(C)c(NS(=O)(=O)c2ccccc2)c1` [Example 83, N-{5-[4-Ethyl-6-(2-methyl-pyridin-4-yl)-pyrimidin-5-ylethynyl]-2-methyl-pyridin-3-yl}-benzenesulfonamide], the EC50 in assay [1] was found to be 86 nM; in assay [3] it was 227 nM; in assay [4] it was 103 nM; in assay [5], 29 nM; in assay [6] it was 57 nM. In assay [2], the IC50 turned out to be 0.65 nM.
Regarding `CCc1ncnc(-c2ccc(OC)c(F)c2)c1C#Cc1cnc(C)c(NS(C)(=O)=O)c1` [Example 8, N-{5-[4-Ethyl-6-(3-fluoro-4-methoxy-phenyl)-pyrimidin-5-ylethynyl]-2-methyl-pyridin-3-yl}-methanesulfonamide], the EC50 stood at 184 nM in assay [1]; 910 nM in assay [3]; 279 nM in assay [4]; 99 nM in assay [5]; 241 nM in assay [6]. Moreover, the IC50 in assay [2] worked out at 1 nM.
On to `CCOc1ccc(-c2ncnc(CC)c2C#Cc2cnc(C)c(NS(C)(=O)=O)c2)cc1OCC` [Example 23, N-{5-[4-(3,4-Diethoxy-phenyl)-6-ethyl-pyrimidin-5-ylethynyl]-2-methyl-pyridin-3-yl}-methanesulfonamide], for which the EC50 worked out at 123 nM in assay [1]; 470 nM in assay [3]; 119 nM in assay [4]; 45 nM in assay [5]; 109 nM in assay [6]. Further, the half-maximal inhibitory concentration (IC50) in assay [2] worked out at 0.58 nM.
For the compound `CCc1ncnc(-c2ccc(OC)c(OC)c2)c1C#Cc1cnc(C)c(NS(C)(=O)=O)c1` [Example 1, N-{5-[4-(3,4-Dimethoxy-phenyl)-6-ethyl-pyrimidin-5-ylethynyl]-2-methyl-pyridin-3-yl}-methanesulfonamide], the EC50 is 79 nM in assay [1]; 300 nM in assay [3]; 94 nM in assay [4]; 39 nM in assay [5]; 490 nM in assay [6]. Besides, the IC50 in assay [2] was found to be 1 nM.
For `CCc1ncnc(-c2ccnc(C)c2)c1C#Cc1cnc(C)c(NS(=O)(=O)c2ccc(Cl)cc2)c1` [Example 85, 4-Chloro-N-{5-[4-ethyl-6-(2-methyl-pyridin-4-yl)-pyrimidin-5-ylethynyl]-2-methyl-pyridin-3-yl}-benzenesulfonamide], the concentration for a half-maximal effect (EC50) in assay [1] was determined as 499 nM; in assay [3] it was 980 nM; in assay [4], 302 nM; in assay [5] it was 88 nM; in assay [6] it was 352 nM. The IC50 in assay [2] is 1 nM.
Regarding `Cc1ncc(C#Cc2c(C)ncnc2-c2cccc(CN(C)C)c2)cc1NS(C)(=O)=O` [Example 41, N-{5-[4-(3-Dimethylaminomethyl-phenyl)-6-methyl-pyrimidin-5-ylethynyl]-2-methyl-pyridin-3-yl}-methanesulfonamide], the EC50 is 1160 nM in assay [1]; 25000 nM in assay [3]; 1280 nM in assay [4]; 1860 nM in assay [5]; 2750 nM in assay [6]. For the same compound, the IC50 in assay [2] was determined as 9 nM.
Regarding `CCc1ncnc(-c2cccc(F)c2)c1C#Cc1cnc(C)c(NS(C)(=O)=O)c1` [Example 61, N-{5-[4-Ethyl-6-(3-fluoro-phenyl)-pyrimidin-5-ylethynyl]-2-methyl-pyridin-3-yl}-methanesulfonamide], the EC50 in assay [1] amounted to 420 nM; in assay [3] it was 321 nM; in assay [4], 693 nM; in assay [5], 454 nM; in assay [6], 400 nM. Also, the IC50 in assay [2] turned out to be 1 nM.
With `CCc1ncnc(-c2ccc(CNC(=O)OC(C)(C)C)nc2)c1C#Cc1cnc(C)c(NS(=O)(=O)c2ccc(F)cc2F)c1` [Example 48, (5-{5-[5-(2,4-Difluoro-benzenesulfonylamino)-6-methyl-pyridin-3-ylethynyl]-6-ethyl-pyrimidin-4-yl}-pyridin-2-ylmethyl)-carbamic acid tert-butyl ester], the EC50 in assay [1] amounted to 89 nM; in assay [3], 89 nM; in assay [4], 26 nM; in assay [5], 3 nM; in assay [6], 63 nM. Further, the IC50 in assay [2] was 0.42 nM.
For the compound `CCc1ncnc(-c2cccc(OC(C)C)c2)c1C#Cc1cnc(C)c(NS(C)(=O)=O)c1` [Example 64, N-{5-[4-Ethyl-6-(3-isopropoxy-phenyl)-pyrimidin-5-ylethynyl]-2-methyl-pyridin-3-yl}-methanesulfonamide], the EC50 came to 621 nM in assay [1]; 888 nM in assay [3]; 615 nM in assay [4]; 309 nM in assay [5]; 606 nM in assay [6]. The IC50 in assay [2] stood at 2 nM.
Turning to `Cc1cc(-c2ncnc(C)c2C#Cc2cncc(NS(C)(=O)=O)c2)ccn1` [Example 95, N-{5-[4-Methyl-6-(2-methyl-pyridin-4-yl)-pyrimidin-5-ylethynyl]-pyridin-3-yl}-methanesulfonamide], the EC50 in assay [1] was determined as 483 nM; in assay [3], 391 nM; in assay [4], 1650 nM; in assay [5], 407 nM; in assay [6] it was 2020 nM. Besides, in assay [2], the half-maximal inhibitory concentration (IC50) worked out at 2 nM.
On to `CCc1ccccc1S(=O)(=O)Nc1cc(C#Cc2c(CC)ncnc2-c2ccnc(C)c2)cnc1C` [Example 88, 2-Ethyl-N-{5-[4-ethyl-6-(2-methyl-pyridin-4-yl)-pyrimidin-5-ylethynyl]-2-methyl-pyridin-3-yl}-benzenesulfonamide], for which the EC50 in assay [1] stood at 330 nM; in assay [3] it was 704 nM; in assay [4] it was 175 nM; in assay [5] it was 65 nM; in assay [6], 140 nM. For the same compound, the IC50 in assay [2] is 9 nM.
As to `CCc1ncnc(-c2ccnc(C)c2)c1C#Cc1cnc(C)c(NS(=O)(=O)c2ccc(CNC(C)=O)cc2)c1` [Example 94, N-(4-{5-[4-Ethyl-6-(2-methyl-pyridin-4-yl)-pyrimidin-5-ylethynyl]-2-methyl-pyridin-3-ylsulfamoyl}-benzyl)-acetamide], the EC50 in assay [1] stood at 514 nM; in assay [3], 2320 nM; in assay [4], 644 nM; in assay [5], 580 nM; in assay [6], 2580 nM. The IC50 in assay [2] was determined as 1 nM.
As to `CCc1ncnc(-c2ccnc(OC)c2)c1C#Cc1cnc(C)c(NS(C)(=O)=O)c1` [Example 76, N-{5-[4-Ethyl-6-(2-methoxy-pyridin-4-yl)-pyrimidin-5-ylethynyl]-2-methyl-pyridin-3-yl}-methanesulfonamide], the EC50 in assay [1] worked out at 148 nM; in assay [3] it was 466 nM; in assay [4] it was 356 nM; in assay [5], 93 nM; in assay [6] it was 207 nM. Moreover, the IC50 in assay [2] came out at 0.91 nM.
Regarding `CCc1cc(-c2ncnc(CC)c2C#Cc2cnc(C)c(NS(C)(=O)=O)c2)ccn1` [Example 5, N-{5-[4-Ethyl-6-(2-ethyl-pyridin-4-yl)-pyrimidin-5-ylethynyl]-2-methyl-pyridin-3-yl}-methanesulfonamide], the EC50 turned out to be 54 nM in assay [1]; 220 nM in assay [3]; 117 nM in assay [4]; 34 nM in assay [5]; 159 nM in assay [6]. For the same compound, the IC50 in assay [2] is 0.63 nM.
Consider `CCc1ncnc(-c2ccnc(C)c2)c1C#Cc1cnc(C)c(NS(=O)(=O)c2ccc(OC)cc2)c1` [Example 87, N-{5-[4-Ethyl-6-(2-methyl-pyridin-4-yl)-pyrimidin-5-ylethynyl]-2-methyl-pyridin-3-yl}-4-methoxy-benzenesulfonamide], for which the EC50 was determined as 505 nM in assay [1]; 887 nM in assay [3]; 381 nM in assay [4]; 372 nM in assay [5]; 240 nM in assay [6]. The IC50 in assay [2] is 5 nM.
With `CCc1nc(N)nc(-c2ccc(C(=O)N3CCN(C)CC3)c(F)c2)c1C#Cc1cnc(C)c(NS(=O)(=O)c2ccc(F)cc2F)c1` [Example 32, N-(5-{2-Amino-4-ethyl-6-[3-fluoro-4-(4-methyl-piperazine-1-carbonyl)-phenyl]-pyrimidin-5-ylethynyl}-2-methyl-pyridin-3-yl)-2,4-difluoro-benzenesulfonamide], the EC50 in assay [1] stood at 49 nM; in assay [3] it was 259 nM; in assay [4], 127 nM; in assay [5], 23 nM; in assay [6], 500 nM. The IC50 in assay [2] was determined as 0.28 nM.
